The values below come from PubChem BioAssay AID1963860 (Molecular Pharmacology Branch, DTP, NCI, 2024).

This assay deals with CN0375-F725-PDC KRAS spheroid viability. As to the kind of experiment: Anticancer human tumor CN0375-F725-PDC patient-derived colon carcinoma cell line growth inhibition [KRAS2]. Particulars: spheroids with HUVEC and MSC; for viability, T/C: stronger effect = lower value. An excerpt: Multicellular complex tumor spheroid response to RAS pathway inhibitors in combination with a targeted agents in patient-derived cell lines with oncogenic KRAS variants from multiple cancer types
A high-throughput screen of multi-cell type tumor spheroids was designed to identify active combinations of targeted small molecules and KRAS pathway inhibitors. Complex spheroids include a stromal component modeled by human endothelial cells (HUVEC) and fibroblasts modeled by human mesenchymal stem cells (MSCs). The concentration ranges selected for each drug and investigational agent were based upon clinically achievable concentrations if the clinical Cmax of the agent was known.
Compounds. The drugs and investigational agents: BI-3406 (NSC825286), BAY-293 (NSC824723), batoprotafib (TNO155; NSC825523), sotorasib (AMG 510; NSC818433), MRTX1257 (NSC819558), elimusertib (BAY 1895344; NSC800525), molibresib (GSK525762; NSC774829), temuterkib (LY3214996; NSC803410), venetoclax (NSC766270), alisertib (NSC759677), olaparib (NSC753686), talazoparib (NSC767125), erdafitinib (NSC781556), ipatasertib (NSC767898), cabozantinib (NSC761068), nintedanib (NSC756659), abemaciclib (NSC768073), docetaxel (NSC628503), trametinib (NSC758246), and sapanisertib (NSC764658) were obtained from the National Cancer Institute (NCI) Developmental Therapeutics Program Chemical Repository. The FDA-approved anticancer drug set is available from the Developmental Therapeutics Program. […] The stock solutions were prepared in dimethyl sulfoxide (DMSO, Sigma-Aldrich, St. Louis, MO, cat. D2650) at 800-fold the tested concentration and stored at -70 degrees C prior to their use. All drugs and investigational agents were tested over a range starting from a high concentration at or near the clinical Cmax and decreasing in half-log increments. If the clinical Cmax for an agent had not been determined, the highest concentration tested was 10 microM.
Cell Culture. All cells were maintained in an incubator at 37 degrees C and 5% CO2 with 95% humidity. The PDC lines were cultured according to standard operating procedures established by the NCI PDMR (https://pdmr.cancer.gov/sops/default.htm). Briefly, all PDCs were thawed and cultured in Matrigel-coated flasks prepared with a working solution of 1X Ham's F-12 nutrient mix, without supplementation (Invitrogen, Waltham, MA, cat. 11765054), 100 U/mL penicillin-streptomycin (Invitrogen, cat. 15140122), and 2.5% Matrigel (Corning Inc., Corning, NY, cat. 354248) for the first three passages. All PDCs were cultured in complete DMEM/F-12 media containing advanced DMEM/F-12 (Invitrogen, cat. 12634028), 4.9% defined fetal bovine serum, heat inactivated (HyClone Laboratories Inc., Logan, UT, cat. SH30070.03HI), 389 ng/mL hydrocortisone (Sigma-Aldrich, cat. H4001), 9.7 ng/mL human EGF recombinant protein (Invitrogen, cat. PHG0313), 23.4 microg/mL adenine (Sigma-Aldrich, cat. A2786), 97.3 U/mL penicillin-streptomycin (Invitrogen, cat. 15140122), 1.9 mM L-glutamine (Invitrogen, cat. 25030081), and 9.7 microM Y-27632 dihydrochloride (Tocris Bioscience, Bristol, United Kingdom, cat. 1254). The PDCs were cultured in complete DMEM/F12 media without 9.7 microM Y-27632 dihydrochloride for at least two passages prior to the screen. The established cell line HOP-62 was cultured in RPMI 1640 medium, HEPES (Invitrogen, cat. 22400105) with 10% defined fetal bovine serum (HyClone Laboratories Inc., cat. SH30070.03) and 2 mM L-glutamine (Invitrogen, cat. 25030081). The pooled donor HUVEC were cultured in endothelial cell growth medium 2 (PromoCell, Heidelberg, Germany, cat. C-22011) and the hMSC were cultured in mesenchymal stem cell growth medium 2 (PromoCell, cat. C-28009). For all experiments, HUVEC and hMSC were used at passages </=5, while the malignant cell lines were used at passages </=15. […]

[1] abbreviates: compound alone, run of 08/26/2021.
Setting [2] is: compound alone, run of 09/02/2021.

By viability, T/C is commonly meant the ratio of treated to control. As usually defined, the IC50 is the concentration at which inhibition is half-maximal.

Values joined by “and” are separate entries in the source; they are usually repeats but may differ in a detail not shown here. Identical values can stand only once.
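Further: spheroids exposed to agents for 7 days.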

Regarding `C=CC(=O)N1CCN(c2nc(OCC3CCCN3C)nc3c2CCN(c2cccc4cccc(C)c24)C3)CC1CC#N` (centres undefined), the viability, T/C was 100% [middle of 17 runs] (compound 0.0316 µM), 100% [middle of 17 runs] (compound 0.1 µM), 98.1% [middle of 17 runs] (compound 0.316 µM) and 92.7% [middle of 17 runs] (compound 1 µM). In addition, the IC50 runs as follows: under setting [1], 1.82 µM [middle of 5 runs]; under setting [2], 2.09 µM [middle of 5 runs].

Regarding `CC(=O)Nc1cccc(-n2c(=O)n(C3CC3)c(=O)c3c(Nc4ccc(I)cc4F)n(C)c(=O)c(C)c32)c1`, the viability, T/C is 97.8% [middle of 5 runs] (compound 0.0001 µM); 84.8% [middle of 5 runs] (compound 0.000316 µM); 71.6% [middle of 5 runs] (compound 0.001 µM); 59.6% [middle of 5 runs] (compound 0.00316 µM); 47.5% [middle of 5 runs] (compound 0.01 µM); 34.5% [middle of 5 runs] (compound 0.0316 µM). In addition, the IC50 (curve of compound) was 7.97 nM [middle of 5 runs].

As to `CC(=O)OC12COC1CC(O)C1(C)C(=O)C(O)C3=C(C)C(OC(=O)C(O)C(NC(=O)OC(C)(C)C)c4ccccc4)CC(O)(C(OC(=O)c4ccccc4)C21)C3(C)C` (centres undefined), the viability, T/C is 101% [middle of 5 runs] (compound 0.01 µM); 97.7% [middle of 5 runs] (compound 0.0316 µM); 89.3% [middle of 5 runs] (compound 0.1 µM); 89% [middle of 5 runs] (compound 0.316 µM); 83.2% [middle of 5 runs] (compound 1 µM); 80.8% [middle of 5 runs] (compound 3.16 µM). Besides, where the note is “curve of compound”, the IC50 is more than 3.16 µM.

Regarding `CC(C)n1nc(-c2ccc3oc(N)nc3c2)c2c(N)ncnc21`, the viability, T/C by setting is: (compound 0.000316 µM) 97.5% [middle of 5 runs]; (compound 0.001 µM) 93.1% [middle of 5 runs]; (compound 0.00316 µM) 79% [middle of 5 runs]; (compound 0.01 µM) 70.7% [middle of 5 runs]; (compound 0.0316 µM) 55.5% [middle of 5 runs]; (compound 0.1 µM) 45.2% [middle of 5 runs]. Moreover, for the setting “curve of compound”, the IC50 was 64.7 nM [middle of 5 runs].

Take `CC1(C)CCC(CN2CCN(c3ccc(C(=O)NS(=O)(=O)c4ccc(NCC5CCOCC5)c([N+](=O)[O-])c4)c(Oc4cnc5[nH]ccc5c4)c3)CC2)=C(c2ccc(Cl)cc2)C1`: the viability, T/C (compound 0.0316 µM) was 106% [middle of 5 runs]; the viability, T/C (compound 0.1 µM) is 102% [middle of 5 runs]; the viability, T/C (compound 0.316 µM) is 106% (3×) and 95.8% and 104%; the viability, T/C (compound 1 µM) is 104% [middle of 5 runs]; the viability, T/C (compound 3.16 µM) is 67.7% [middle of 5 runs].

Take `CC1COCCN1c1cc(-c2ccnn2C)c2ccnc(-c3ccn[nH]3)c2n1` (centres undefined): the viability, T/C is 105% [middle of 5 runs] (compound 0.01 µM); 97.3% [middle of 5 runs] (compound 0.0316 µM); 90.8% [middle of 5 runs] (compound 0.1 µM); 85.7% [middle of 5 runs] (compound 0.316 µM); 72.1% [middle of 5 runs] (compound 1 µM); 58.4% [middle of 5 runs] (compound 3.16 µM). In addition, where the note is “curve of compound”, the IC50 is more than 3.16 µM.

As to `CC1OCC2(CCN(c3cnc(Sc4ccnc(N)c4Cl)c(N)n3)CC2)C1N` (centres undefined), the viability, T/C is 98.4% and 98.5% and 100% (compound 0.0316 µM); 94.9% [middle of 19 runs] (compound 0.1 µM); 89.6% [middle of 19 runs] (compound 0.316 µM); 78.7% [middle of 20 runs] (compound 3.16 µM). The IC50 by setting is: (compound alone, run of 08/19/2021) more than 10 µM; under setting [1], more than 10 µM; under setting [2], more than 10 µM; (curve of compound) more than 10 µM.

As for `CCN1CCN(Cc2ccc(Nc3ncc(F)c(-c4cc(F)c5nc(C)n(C(C)C)c5c4)n3)nc2)CC1`, the viability, T/C by setting is: (compound 0.00316 µM) 102% [middle of 5 runs]; (compound 0.01 µM) 95.6% [middle of 5 runs]; (compound 0.0316 µM) 91.2% [middle of 5 runs]; (compound 0.1 µM) 97.8% [middle of 5 runs]; (compound 0.316 µM) 107% [middle of 5 runs]; (compound 1 µM) 101% [middle of 5 runs]. The IC50 (curve of compound) was more than 1 µM.

As for `CCNC(=O)CC1N=C(c2ccc(Cl)cc2)c2cc(OC)ccc2-n2c(C)nnc21` (centres undefined), the viability, T/C reads like this: (compound 0.0316 µM) 100% [middle of 5 runs]; (compound 0.1 µM) 97.1% [middle of 5 runs]; (compound 0.316 µM) 90.4% [middle of 5 runs]; (compound 1 µM) 84.2% [middle of 5 runs]; (compound 3.16 µM) 74.3% [middle of 5 runs]; (compound 10 µM) 58.6% [middle of 5 runs]. The IC50 (curve of compound) is more than 10 µM.

As to `CN(C)C/C=C/C(=O)Nc1cc2c(Nc3ccc(F)c(Cl)c3)ncnc2cc1O[C@H]1CCOC1`, the viability, T/C runs as follows: (compound 0.000316 µM) 105% [middle of 5 runs]; (compound 0.001 µM) 94.1% [middle of 5 runs]; (compound 0.00316 µM) 90.4% [middle of 5 runs]; (compound 0.01 µM) 88.3% [middle of 5 runs]; (compound 0.0316 µM) 79.2% [middle of 5 runs]; (compound 0.1 µM) 81.1% [middle of 5 runs]. Further, the IC50 (curve of compound) was more than 0.1 µM.

As for `COc1cc(Nc2ncc3c(n2)-c2ccc(Cl)cc2C(c2c(F)cccc2OC)=NC3)ccc1C(=O)O`, the viability, T/C was 102% [middle of 5 runs] (compound 0.0316 µM); 101% [middle of 5 runs] (compound 0.1 µM); 93.7% [middle of 5 runs] (compound 0.316 µM); 96.3% [middle of 5 runs] (compound 1 µM); 94.8% [middle of 5 runs] (compound 3.16 µM); 78.3% [middle of 5 runs] (compound 10 µM). Also, for the setting “curve of compound”, the IC50 was more than 10 µM.

As for `Cn1nccc1Nc1nccc(-c2cc3c(s2)C(C)(C)N(CCN2CCOCC2)C3=O)n1`, the viability, T/C (compound 0.0316 µM) is 104% [middle of 5 runs]; the viability, T/C (compound 0.1 µM) was 90% [middle of 5 runs]; the viability, T/C (compound 0.316 µM) is 77.5% [middle of 5 runs]; the viability, T/C (compound 1 µM) was 72.3% [middle of 5 runs]; the viability, T/C (compound 3.16 µM) was 56.5% [middle of 5 runs]; the viability, T/C (compound 10 µM) was 44.6% [middle of 5 runs]. In addition, where the note is “curve of compound”, the IC50 is 5.56 µM [middle of 5 runs].

As to `Cn1ncnc1[C@H]1c2n[nH]c(=O)c3cc(F)cc(c23)N[C@@H]1c1ccc(F)cc1`, the viability, T/C was 107% [middle of 5 runs] (compound 0.000316 µM); 102% [middle of 5 runs] (compound 0.001 µM); 99.8% [middle of 5 runs] (compound 0.00316 µM); 101% [middle of 5 runs] (compound 0.01 µM); 102% [middle of 5 runs] (compound 0.0316 µM); 96% [middle of 5 runs] (compound 0.1 µM). The IC50 (curve of compound) is more than 0.1 µM.
